Key:
[1] = biological target: T1, IRE1α (Homo sapiens (Human), UniProt O75460); assay: In vitro luciferase assay (IRE1α Endoribonuclease Nanoluciferase Assay); format: cell-based; conditions: 293T cells, XBP1 luciferase reporter
Procedure, shortened: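 293T cells transiently transfected with a PGK-Luc2-P2A-XBP1u-nanoluciferase-PEST reporter for IRE1α-dependent XBP1 splicing, replated, and treated next day with ER stressors ± inhibitors. Lysates read sequentially for luminescence (OneGlo, then Stop and Glo), 1000 ms integration.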

[2] = system: 293T cells; assay: Growth assay (cytotoxicity); format: cell-based; conditions: Homo sapiens, HEK-293T, 48 h, 2 day incubation, read-out: percentage growth at 5 uM
Procedure: A growth assay is performed to evaluate the compounds disclosed in Table 1 for cytotoxicity. Briefly, 5,000,000 293T cells are resuspended in 18 mL of cDMEM for a final concentration of 277,777 cells/mL. 180 μL (50,000 cells) cDMEM was seeded per well in 96 well flat bottom plate, with some wells left unfilled. In a 96 well plate, […] cDMEM and 1 uL of any one of the compounds disclosed herein. 133.3 uL cDMEM is added to wells 1, 2, 3, 5, 6, 7, 9, 10, and 11 of row A. Wells are serially diluted with 66.7 uL (highest concentration on right, lowest on left) to the total concentrations shown below. 20 uL of each dilution is transferred in duplicate to the cells plated in the 96-well plate. The plate is then placed in a humidified chamber for a 2 day incubation, and then photographed (media is more yellow in wells with potent cell growth). Absorbance is then measured at […] (lower for more acidic media) and […] (higher for more acidic media).

[3] = biological target: T1, IRE1α; assay: In vitro FRET assay; format: biochemical; conditions: XBP1 RNA probe
Procedure, shortened: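 IRE1α (diluted to 2 nM) in citrate buffer pH 7.15 with serially diluted compound; FAM/Iowa Black-quenched XBP1 RNA probe (wildtype or non-spliceable mutant) added, fluorescence read […]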

T1 sequence (O75460 19-977): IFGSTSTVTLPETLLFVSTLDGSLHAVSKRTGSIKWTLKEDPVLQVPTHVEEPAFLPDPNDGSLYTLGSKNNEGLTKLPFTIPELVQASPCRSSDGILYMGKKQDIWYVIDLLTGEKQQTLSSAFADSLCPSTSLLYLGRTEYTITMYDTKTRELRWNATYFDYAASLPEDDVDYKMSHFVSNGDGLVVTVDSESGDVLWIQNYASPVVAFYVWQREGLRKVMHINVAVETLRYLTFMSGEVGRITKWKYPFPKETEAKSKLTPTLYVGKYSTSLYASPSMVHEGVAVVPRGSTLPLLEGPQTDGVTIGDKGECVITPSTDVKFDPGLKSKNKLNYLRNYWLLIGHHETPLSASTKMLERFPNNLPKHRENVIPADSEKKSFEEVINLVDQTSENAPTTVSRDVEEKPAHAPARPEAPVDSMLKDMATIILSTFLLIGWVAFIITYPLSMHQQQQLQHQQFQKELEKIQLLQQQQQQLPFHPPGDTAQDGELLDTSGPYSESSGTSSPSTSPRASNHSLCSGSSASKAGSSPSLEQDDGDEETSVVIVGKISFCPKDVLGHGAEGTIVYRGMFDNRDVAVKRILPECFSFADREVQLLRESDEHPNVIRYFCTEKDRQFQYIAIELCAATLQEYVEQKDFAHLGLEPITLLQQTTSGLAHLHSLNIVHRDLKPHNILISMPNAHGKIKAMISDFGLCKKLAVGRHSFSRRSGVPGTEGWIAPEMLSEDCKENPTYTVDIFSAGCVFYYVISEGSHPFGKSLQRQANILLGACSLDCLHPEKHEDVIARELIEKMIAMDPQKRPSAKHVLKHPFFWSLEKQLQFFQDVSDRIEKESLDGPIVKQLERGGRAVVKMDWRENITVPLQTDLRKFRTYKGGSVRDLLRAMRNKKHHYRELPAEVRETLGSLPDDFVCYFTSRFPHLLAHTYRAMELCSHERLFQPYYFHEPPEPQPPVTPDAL

| SMILES | EC50 [1] [nM] | IC50 [3] [nM] | viability at 5 µM [2] [%] |
| --- | --- | --- | --- |
| Cc1nc(NS(=O)(=O)c2ccccc2Cl)c(F)cc1CCc1cnc(NC2CCC(N(C)C)CC2)nc1 (stereo not drawn) [Compound 24, 2-chloro-N-(5-(2-(2-(((1r,4r)-4-(dimethylamino)cyclohexyl)amino)pyrimidin-5-yl)ethyl)-3-fluoro-6-methylpyridin-2-yl)benzenesulfonamide] | – | 1 to 5 | > 75 |
| NC1CCC(Nc2ncc(CCc3ccc(NS(=O)(=O)c4ccccc4Cl)cc3)cn2)CC1 (stereo not drawn) [Compound 1, N-(4-(2-(2-(((1r,4r)-4-aminocyclohexyl)amino)pyrimidin-5-yl)ethyl)phenyl)-2-chlorobenzenesulfonamide] | 50 to 100 | 1 to 5 | > 75 |
| COc1nc(NS(=O)(=O)c2ccccc2Cl)ccc1CCc1cnc(NC2CCC(N)CC2)nc1 (stereo not drawn) [Compound 10, N-(5-(2-(2-(((1r,4r)-4-aminocyclohexyl)amino)pyrimidin-5-yl)ethyl)-6-methoxypyridin-2-yl)-2-chlorobenzenesulfonamide] | – | ≤ 1 | > 75 |
| NC1CCC(Nc2ncc(/C=C/c3ccc(NS(=O)(=O)c4ccccc4Cl)nn3)cn2)CC1 (stereo not drawn) [Compound 2, N-(6-((E)-2-(2-(((1r,4r)-4-aminocyclohexyl)amino)pyrimidin-5-yl)vinyl)pyridazin-3-yl)-2-chlorobenzenesulfonamide] | 50 to 100 | – | > 75 |
| NC1CCC(Nc2ncc(CCc3ccc(NS(=O)(=O)c4ccccc4Cl)c(F)c3)cn2)CC1 (stereo not drawn) [Compound 8, N-(4-(2-(2-(((1r,4r)-4-aminocyclohexyl)amino)pyrimidin-5-yl)ethyl)-2-fluorophenyl)-2-chlorobenzenesulfonamide] | 100 to 10000 | ≤ 1 | > 75 |
| COc1nc(NS(=O)(=O)c2ccccc2Cl)ccc1CCc1cnc(NC2CCC(N(C)C)CC2)nc1 (stereo not drawn) [Compound 19, 2-chloro-N-(5-(2-(2-(((1r,4r)-4-(dimethylamino)cyclohexyl)amino)pyrimidin-5-yl)ethyl)-6-methoxypyridin-2-yl)benzenesulfonamide] | 5 to 50 | ≤ 1 | > 75 |
| COc1cc(NS(=O)(=O)c2ccccc2Cl)ccc1/C=C/c1cnc(NC2CCC(N)CC2)nc1 (stereo not drawn) [Compound 14, N-(4-((E)-2-(2-(((1r,4r)-4-aminocyclohexyl)amino)pyrimidin-5-yl)vinyl)-3-methoxyphenyl)-2-chlorobenzenesulfonamide] | ≤ 5 | ≤ 1 | > 35 |

Now from value to compound, other results behind:

| EC50 [1] [nM] | IC50 [3] [nM] | SMILES | viability at 5 µM [2] [%] |
| --- | --- | --- | --- |
| 5 to 50 | ≤ 1 | CCc1nc(NS(=O)(=O)c2ccccc2Cl)ccc1C=Cc1cnc(NC2CCC(N)CC2)nc1 (stereo not drawn) [Compound 45, N-(5-(2-(2-((1r,4r)-4-aminocyclohexyl)amino)pyrimidin-5-yl)vinyl)-6-ethylpyridin-2-yl)-2-chlorobenzenesulfonamide] | > 75 |
| ≤ 5 | ≤ 1 | Cc1cc(NS(=O)(=O)c2ccccc2Cl)cc(F)c1/C=C/c1cnc(NC2CCC(N(C)C)CC2)nc1 (stereo not drawn) [Compound 27, 2-chloro-N-(4-((E)-2-(2-(((1r,4r)-4-(dimethylamino)cyclohexyl)amino)pyrimidin-5-yl)vinyl)-3-fluoro-5-methylphenyl)benzenesulfonamide] | > 50 |
| 5 to 50 | ≤ 1 | Cc1nc(NS(=O)(=O)c2ccccc2Cl)c(F)cc1/C=C/c1cnc(NC2CCC(N(C)C)CC2)nc1 (stereo not drawn) [Compound 25, 2-chloro-N-(5-((E)-2-(2-(((1r,4r)-4-(dimethylamino)cyclohexyl)amino)pyrimidin-5-yl)vinyl)-3-fluoro-6-methylpyridin-2-yl)benzenesulfonamide] | > 75 |
| ≤ 5 | ≤ 1 | Cc1cc(NS(=O)(=O)c2ccccc2Cl)ccc1/C=C/c1cnc(NC2CCC(N(C)C)CC2)nc1 (stereo not drawn) [Compound 26, 2-chloro-N-(4-((E)-2-(2-(((1r,4r)-4-(dimethylamino)cyclohexyl)amino)pyrimidin-5-yl)vinyl)-3-methylphenyl)benzenesulfonamide] | > 35 |

Source: US11945784B2, “IRE1 small molecule inhibitors” (Cornell University, priority 2018, dated 2024)
